One block for each substance: values may come before it.
Legend:
rat adipose cells = test: Glucose transport in adipose cells; type: cell-based
Procedure: The biological activity of the peptides were measured by their effect on glucose uptake in rat adipose cells as described (Stagsted et al. (1991) J. Biol. Chem. 266:12844-12847). Briefly, rat adipose cells were obtained from epididymal fat pads and suspended in Krebs-Ringer HEPES buffer (KRH) with 5% bovine serum albumin at a lipocrit of 10% (final). […] Most of the peptides were not tested at higher concentrations than 30 μM.

human insulin receptor = molecular target: T1, human insulin receptor (Homo sapiens, UniProt P06213); test: Insulin receptor internalization in transfected HeLa cells; type: cell-based; conditions: for effect on insulin receptor internalization (in words): transfected cells, 10 μM peptide
T1 construct: expressed in transfected cells; host or cells: HeLa cells, electroporated; pCR3 expression vector (Invitrogen, catalog no. K3000-01)
Procedure: Insulin Receptor modification and expression. […] K3000-01) was transfected by electroporation into HeLa cells. Methods of electroporation are described in Boggs et al. (1986) Ex. Hematol. 149:988-994. In the transfected cells the receptors show insulin dependent internalization.
Receptor internalization was performed essentially as described in Stagsted et al. (1990) Cell 62:297-307. […] The cells were then diluted with 50 μl of KRHB (pH7.2) (no acid wash) or 50 μl of KRHB (pH 2.0) (acid wash) and incubated on ice for 5 min. The cells were finally harvested by centrifugation on top of silicone oil, and both free and cell-associated radioactivity was measured.

Substance: GNEQSFRVDLRTLLRYAGGGNEQSFRVDLRTLLRYA [DS-A85]
enhancement of glucose uptake (rat adipose cells; insulin + 10 μM peptide (insulin alone 14±3 fold)): 22±4 fold

Substance: KTDSQILKELEESSFRKTFEDYLH [pepIR, human insulin receptor derived peptide]
effect on glucose uptake (in words) (rat adipose cells; at maximal insulin stimulation): did not significantly affect glucose uptake | effect on insulin receptor internalization (in words) (human insulin receptor): inhibits receptor internalization to the same extent as DS-A85

per cent internalized receptor (human insulin receptor; in the presence of 10 μM peptide, time not stated, in the absence of peptide 64±7): 6±9 per cent
Substance: TWLGRQGPEGPSSIPPGTLTTLW [GLUT4pep]
effect on insulin receptor internalization (in words) (human insulin receptor): does not affect insulin receptor internalization

Substance: insulin
enhancement of glucose uptake (rat adipose cells; 10 nM insulin alone): 12±4 fold | enhancement of glucose uptake (rat adipose cells; 10 μM insulin alone): 14±3 fold

— US6346390B1, “Receptor derived peptides involved in modulation of response to ligand binding” (Receptron, Inc., priority 1996, dated 2002)
